Results published in US20180086714A1 (priority 2015, published 2018).

Tests used:
Format in all cases: cell-based
Septoria tritici = assay: Microtest, activity against leaf blotch on wheat; conditions: 405 nm 9 days after inoculation, comparative example
Phytophthora infestans = conditions: 405 nm 7 days after inoculation, comparative example
Leptosphaeria nodorum = assay: Microtest, activity against wheat leaf spots; conditions: 405 nm 9 days after inoculation, comparative example

CC1(C)N=C(c2cnc3ccccc3c2)c2[nH]ccc2C1(C)C
Growth (%) at 8 ppm (Septoria tritici): 53%

CC1(C)N=C(c2cnc3ccccc3c2)c2ccccc2C1(C)C
Growth (%) at 8 ppm (Septoria tritici): 74%

CC1(C)Cc2ccccc2C(c2cnc3ccccc3c2)=N1 [drawing 139]
Growth (%) at 31 ppm (Phytophthora infestans): 33%

CC1(C)Cc2cc[nH]c2C(c2cnc3ccccc3c2)=N1 [drawing 142]
Growth (%) at 2 ppm (Leptosphaeria nodorum): 65%

CC1(C)Cc2cc[nH]c2C(c2cnc3ccccc3c2)=N1 [drawing 140]
Growth (%) at 31 ppm (Phytophthora infestans): 17%

CC1(C)Cc2ccccc2C(c2cnc3ccccc3c2)=N1 [drawing 141]
Growth (%) at 2 ppm (Leptosphaeria nodorum): 83%
